Results taken from US10918645B2 (LIFEARC, priority 2016, dated 2021).

How the values were obtained:
Assay type in all cases: biochemical
Conditions in all cases: 1 μM inhibitor concentration
S6K1 = S6K1 (Homo sapiens (Human), UniProt P23443); assay: S6K1 kinase selectivity assay
Procedure: S6K1/P70 S6K (5-20 mU diluted in 20 mM MOPS pH 7.5, 1 mM EDTA, 0.01% Brij35, 5% glycerol, 0.1% b-mercaptoethanol, 1 mg/ml BSA) is assayed against substrate peptide ([…]) in a final volume of 25.5 μl containing 8 mM MOPS pH 7.0, 0.2 mM EDTA, 0.1 mM substrate peptide, 10 mM magnesium acetate and 0.02 mM [33P-g-ATP] (50-1000 cpm/pmole) and incubated for 30 min at room temperature. Assays are stopped by addition of 5 μl of 0.5 M (3%) orthophosphoric acid and then harvested onto P81 Unifilter plates with a wash buffer of 50 mM orthophosphoric acid.

PKCz = PKCz (Homo sapiens (Human), UniProt Q05513); assay: PKCz kinase selectivity assay
Procedure: (§1) PKC zeta (5-20 mU diluted in 50 mM Tris pH 7.5, 0.1 mM EGTA, 0.1% b-mercaptoethanol, 1 mg/ml BSA, 100 μM Vanadate) is assayed against a substrate peptide ([…]) in a final volume of 25.5 μl containing 50 mM Tris pH 7.5, 0.05% b-mercaptoethanol, 10 M Vanadate, 300 μM substrate peptide, 10 mM magnesium acetate and 0.005 mM [33P-g-ATP] (50-1000 cpm/pmole) and incubated for 30 min at room temperature. Assays are stopped by addition of 5 μl of 0.5 M (3%) orthophosphoric acid and then harvested onto P81 Unifilter plates with a wash buffer of 50 mM orthophosphoric acid.

CDK2-CyclinA = CDK2-CyclinA (Homo sapiens (Human), UniProt P24941); assay: CDK2-CyclinA kinase selectivity assay
Procedure: CDK2/cyclin A (5-20 mU diluted in 50 mM Hepes pH 7.5, 1 mM DTT, 0.02% Brij35, 100 mM NaCl) is assayed against Histone H1 in a final volume of 25.5 μl containing 50 mM Hepes pH7.5, 1 mM DTT, 0.02% Brij35, 100 mM NaCl, Histone H1 (1 mg/ml), 10 mM magnesium acetate and 0.02 mM [33P-g-ATP](500-1000 cpm/pmole) and incubated for 30 min at room temperature. Assays are stopped by addition of 5 μl of 0.5 M (3%) orthophosphoric acid and then harvested onto P81 Unifilter plates with a wash buffer of 50 mM orthophosphoric acid.

PLK1 = PLK1 (Homo sapiens (Human), UniProt P53350); assay: PLK1 kinase selectivity assay
Procedure: as §1, with “PLK1 (5-20” for “PKC zeta (5-20”, “10 μM” for “10 M”
as §1, with “PLK1 (5-20” for “PKC zeta (5-20”, “100 µM” for “100 μM”

AuroraB = AuroraB (Homo sapiens (Human), UniProt Q96GD4); assay: AuroraB kinase selectivity assay
Procedure: as §1, with “Aurora B” for “PKC zeta”, “BSA)” for “BSA, 100 μM Vanadate)”, “b-mercaptoethanol,” for “b-mercaptoethanol, 10 M Vanadate,”, “0.02” for “0.005”, “[33P-g-ATP](50-1000” for “[33P-g-ATP] (50-1000”

MARK3 = MARK3 (Homo sapiens (Human), UniProt P27448); assay: MARK3 kinase selectivity assay
Procedure: MARK3 (5-20 mU diluted in 50 mM Tris pH 7.5, 0.1 mM EGTA, 0.1% b-mercaptoethanol, 1 mg/ml BSA) is assayed against CHKtide substrate ([…]) in a final volume of 25.5 μl containing 50 mM Tris pH 7.5, 0.05% b-mercaptoethanol, 300 μM substrate peptide, 10 mM magnesium acetate and 0.005 mM [33P-g-ATP](50-1000 cpm/pmole) and incubated for 30 min at room temperature. Assays are stopped by addition of 5 μl of 0.5 M (3%) orthophosphoric acid and then harvested onto P81 Unifilter plates with a wash buffer of 50 mM orthophosphoric acid.

IKKe = IKKe (Homo sapiens (Human), UniProt Q14164); assay: IKKe kinase selectivity assay
Procedure: 5-20 mU of IKKepsilon (DU14231)(diluted in 50 mM Tris (pH 7.5), 0.1 mM EGTA, 1 mg/ml BSA) is assayed against MBP in a final volume of 25.5 μl containing 50 mM Tris (pH 7.5), 0.1 mM EGTA, 0.33 mg/ml MBP, 10 mM magnesium acetate and 0.05 mM [33P-g-ATP](500-1000 cpm/pmole) and incubated for 30 mins at room temperature. Assays are stopped by addition of 5 μl of 0.5M (3%) orthophosphoric acid. Assays are harvested onto P81 Unifilter plates using a wash buffer of 50 mM orthophosphoric acid.

MEKK1 = MEKK1 (Homo sapiens (Human), UniProt Q13233); assay: MEKK1 kinase selectivity assay
Procedure: MEKK1 (5-20 mU diluted in 50 mM Tris pH 7.5, 0.1 mM EGTA, 0.1% 0-mercaptoethanol, 1 mg/ml BSA) is assayed against MBP in a final volume of 25.5 μl containing 50 mM Tris pH 7.5, 0.1 mM EGTA, 0.33 mg/ml MBP, 10 mM magnesium acetate and 0.02 mM [33P-γ-ATP] (50-1000 cpm/pmole) and incubated for 30 min at room temperature. Assays are stopped by addition of 5 μl of 0.5 M (3%) orthophosphoric acid and then harvested onto P81 Unifilter plates with a wash buffer of 50 mM orthophosphoric acid.

Sequence of PKCz (Q05513 whole entry): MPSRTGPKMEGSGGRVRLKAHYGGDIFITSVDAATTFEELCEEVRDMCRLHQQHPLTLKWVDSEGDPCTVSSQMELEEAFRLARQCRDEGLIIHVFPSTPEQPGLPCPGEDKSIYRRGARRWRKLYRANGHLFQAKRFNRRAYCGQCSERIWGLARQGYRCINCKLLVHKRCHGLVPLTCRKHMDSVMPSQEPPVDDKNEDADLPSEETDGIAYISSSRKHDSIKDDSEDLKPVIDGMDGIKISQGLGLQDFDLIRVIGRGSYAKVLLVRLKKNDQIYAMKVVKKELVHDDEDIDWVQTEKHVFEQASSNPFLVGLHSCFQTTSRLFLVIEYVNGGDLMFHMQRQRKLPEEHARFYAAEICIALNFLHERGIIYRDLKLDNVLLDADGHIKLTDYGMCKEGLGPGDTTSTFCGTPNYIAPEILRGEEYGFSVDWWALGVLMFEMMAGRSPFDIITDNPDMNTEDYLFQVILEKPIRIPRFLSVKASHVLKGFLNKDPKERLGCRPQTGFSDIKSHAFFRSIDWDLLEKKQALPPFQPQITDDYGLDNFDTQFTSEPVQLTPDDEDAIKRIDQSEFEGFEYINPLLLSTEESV
Sequence of PLK1 (P53350 whole entry, species assumed): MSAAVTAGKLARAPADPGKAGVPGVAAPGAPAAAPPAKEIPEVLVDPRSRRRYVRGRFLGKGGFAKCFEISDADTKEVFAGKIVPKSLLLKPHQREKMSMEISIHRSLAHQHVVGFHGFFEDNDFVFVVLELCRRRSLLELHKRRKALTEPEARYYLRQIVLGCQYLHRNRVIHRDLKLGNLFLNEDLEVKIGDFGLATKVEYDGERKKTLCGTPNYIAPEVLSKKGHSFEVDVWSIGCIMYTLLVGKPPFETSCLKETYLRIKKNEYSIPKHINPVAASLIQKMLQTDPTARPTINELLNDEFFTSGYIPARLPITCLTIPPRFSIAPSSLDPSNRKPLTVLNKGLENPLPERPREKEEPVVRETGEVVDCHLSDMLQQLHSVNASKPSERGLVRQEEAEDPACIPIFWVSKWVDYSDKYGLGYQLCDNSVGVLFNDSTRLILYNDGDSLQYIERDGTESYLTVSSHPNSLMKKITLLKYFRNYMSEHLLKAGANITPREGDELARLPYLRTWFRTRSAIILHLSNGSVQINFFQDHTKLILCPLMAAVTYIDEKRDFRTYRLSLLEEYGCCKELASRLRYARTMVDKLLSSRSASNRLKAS
Sequence of MARK3 (P27448 whole entry, species assumed): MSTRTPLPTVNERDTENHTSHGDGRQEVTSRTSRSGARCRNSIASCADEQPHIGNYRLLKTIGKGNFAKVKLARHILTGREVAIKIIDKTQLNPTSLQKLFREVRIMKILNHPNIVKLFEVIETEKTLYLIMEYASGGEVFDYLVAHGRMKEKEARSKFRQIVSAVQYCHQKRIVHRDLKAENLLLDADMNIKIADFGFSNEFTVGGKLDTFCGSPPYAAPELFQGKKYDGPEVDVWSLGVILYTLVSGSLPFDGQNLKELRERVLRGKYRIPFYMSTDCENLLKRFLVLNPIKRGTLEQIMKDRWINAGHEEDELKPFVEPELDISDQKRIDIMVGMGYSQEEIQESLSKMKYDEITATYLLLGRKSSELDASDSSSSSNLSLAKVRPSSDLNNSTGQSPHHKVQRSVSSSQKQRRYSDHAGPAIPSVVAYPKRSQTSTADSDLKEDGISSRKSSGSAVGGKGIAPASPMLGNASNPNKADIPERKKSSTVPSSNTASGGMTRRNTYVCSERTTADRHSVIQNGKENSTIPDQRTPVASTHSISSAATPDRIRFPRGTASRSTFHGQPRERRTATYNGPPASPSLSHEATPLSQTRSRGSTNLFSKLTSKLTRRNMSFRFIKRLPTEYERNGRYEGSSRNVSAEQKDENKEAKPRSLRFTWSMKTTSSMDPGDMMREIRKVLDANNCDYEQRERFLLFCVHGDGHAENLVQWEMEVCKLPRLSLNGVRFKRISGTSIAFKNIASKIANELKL
Sequence of S6K1 (P23443 whole entry, species assumed): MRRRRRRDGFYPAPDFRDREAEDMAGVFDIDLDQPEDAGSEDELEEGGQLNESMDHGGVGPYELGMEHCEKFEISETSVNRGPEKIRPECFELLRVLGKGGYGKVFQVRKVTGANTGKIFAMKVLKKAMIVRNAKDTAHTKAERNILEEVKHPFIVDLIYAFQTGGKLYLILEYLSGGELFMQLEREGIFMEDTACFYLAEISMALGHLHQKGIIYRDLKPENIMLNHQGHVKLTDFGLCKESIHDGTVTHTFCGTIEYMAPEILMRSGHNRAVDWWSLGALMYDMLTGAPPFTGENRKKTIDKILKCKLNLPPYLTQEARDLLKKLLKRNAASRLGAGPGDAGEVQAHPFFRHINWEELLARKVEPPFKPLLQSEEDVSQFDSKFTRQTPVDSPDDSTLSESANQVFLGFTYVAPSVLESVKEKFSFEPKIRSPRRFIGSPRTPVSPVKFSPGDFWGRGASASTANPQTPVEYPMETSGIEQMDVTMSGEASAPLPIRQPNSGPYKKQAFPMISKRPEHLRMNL
Sequence of AuroraB (Q96GD4 whole entry): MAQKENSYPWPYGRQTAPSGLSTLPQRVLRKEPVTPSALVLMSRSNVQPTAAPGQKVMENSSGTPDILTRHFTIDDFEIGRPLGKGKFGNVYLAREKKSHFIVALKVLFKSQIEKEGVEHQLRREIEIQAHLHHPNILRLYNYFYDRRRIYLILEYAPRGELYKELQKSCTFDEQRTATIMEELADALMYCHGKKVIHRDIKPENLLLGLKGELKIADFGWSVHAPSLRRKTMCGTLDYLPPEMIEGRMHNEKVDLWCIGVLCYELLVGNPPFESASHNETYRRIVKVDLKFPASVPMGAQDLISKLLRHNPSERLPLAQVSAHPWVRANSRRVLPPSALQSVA
Sequence of MEKK1 (Q13233 whole entry, species assumed): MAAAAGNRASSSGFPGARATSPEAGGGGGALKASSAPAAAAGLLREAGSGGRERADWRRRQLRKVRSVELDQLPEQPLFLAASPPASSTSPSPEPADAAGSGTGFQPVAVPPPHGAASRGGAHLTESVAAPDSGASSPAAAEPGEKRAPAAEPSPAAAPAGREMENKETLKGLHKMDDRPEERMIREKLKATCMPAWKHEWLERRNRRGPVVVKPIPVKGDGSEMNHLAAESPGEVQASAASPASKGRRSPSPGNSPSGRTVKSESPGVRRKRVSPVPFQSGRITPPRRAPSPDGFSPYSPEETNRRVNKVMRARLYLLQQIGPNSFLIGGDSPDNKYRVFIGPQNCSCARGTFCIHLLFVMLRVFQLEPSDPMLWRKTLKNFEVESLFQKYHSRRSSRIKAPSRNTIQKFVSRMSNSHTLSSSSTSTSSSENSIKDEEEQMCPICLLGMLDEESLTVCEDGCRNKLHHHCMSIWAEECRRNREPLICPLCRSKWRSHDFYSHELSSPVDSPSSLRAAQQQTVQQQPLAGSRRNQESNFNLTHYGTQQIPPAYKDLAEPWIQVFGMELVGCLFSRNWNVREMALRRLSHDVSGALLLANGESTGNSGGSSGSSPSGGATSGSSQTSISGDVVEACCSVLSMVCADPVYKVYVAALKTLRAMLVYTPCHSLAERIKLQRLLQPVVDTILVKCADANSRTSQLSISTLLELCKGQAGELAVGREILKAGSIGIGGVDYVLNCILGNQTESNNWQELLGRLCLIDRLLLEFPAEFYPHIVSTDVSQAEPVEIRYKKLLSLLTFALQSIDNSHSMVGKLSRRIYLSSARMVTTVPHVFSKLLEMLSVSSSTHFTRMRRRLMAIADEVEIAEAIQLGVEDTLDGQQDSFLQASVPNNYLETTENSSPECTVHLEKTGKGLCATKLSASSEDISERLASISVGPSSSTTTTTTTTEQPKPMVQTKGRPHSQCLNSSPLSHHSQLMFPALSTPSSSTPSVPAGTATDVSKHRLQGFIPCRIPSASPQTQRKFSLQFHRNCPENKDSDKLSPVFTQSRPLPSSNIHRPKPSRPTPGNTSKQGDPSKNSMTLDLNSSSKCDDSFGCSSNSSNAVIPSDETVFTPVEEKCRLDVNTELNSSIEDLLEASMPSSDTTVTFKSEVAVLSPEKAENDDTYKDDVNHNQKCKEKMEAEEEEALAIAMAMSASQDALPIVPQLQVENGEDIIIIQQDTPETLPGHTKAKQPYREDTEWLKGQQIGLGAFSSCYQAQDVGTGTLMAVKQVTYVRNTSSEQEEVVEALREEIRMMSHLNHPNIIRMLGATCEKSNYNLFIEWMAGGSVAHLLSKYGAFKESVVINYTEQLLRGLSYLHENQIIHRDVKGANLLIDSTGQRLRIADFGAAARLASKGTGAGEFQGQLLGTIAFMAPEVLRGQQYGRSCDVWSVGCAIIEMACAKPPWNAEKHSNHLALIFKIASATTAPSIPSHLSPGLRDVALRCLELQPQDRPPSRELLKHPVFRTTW
Sequence of IKKe (Q14164 whole entry, species assumed): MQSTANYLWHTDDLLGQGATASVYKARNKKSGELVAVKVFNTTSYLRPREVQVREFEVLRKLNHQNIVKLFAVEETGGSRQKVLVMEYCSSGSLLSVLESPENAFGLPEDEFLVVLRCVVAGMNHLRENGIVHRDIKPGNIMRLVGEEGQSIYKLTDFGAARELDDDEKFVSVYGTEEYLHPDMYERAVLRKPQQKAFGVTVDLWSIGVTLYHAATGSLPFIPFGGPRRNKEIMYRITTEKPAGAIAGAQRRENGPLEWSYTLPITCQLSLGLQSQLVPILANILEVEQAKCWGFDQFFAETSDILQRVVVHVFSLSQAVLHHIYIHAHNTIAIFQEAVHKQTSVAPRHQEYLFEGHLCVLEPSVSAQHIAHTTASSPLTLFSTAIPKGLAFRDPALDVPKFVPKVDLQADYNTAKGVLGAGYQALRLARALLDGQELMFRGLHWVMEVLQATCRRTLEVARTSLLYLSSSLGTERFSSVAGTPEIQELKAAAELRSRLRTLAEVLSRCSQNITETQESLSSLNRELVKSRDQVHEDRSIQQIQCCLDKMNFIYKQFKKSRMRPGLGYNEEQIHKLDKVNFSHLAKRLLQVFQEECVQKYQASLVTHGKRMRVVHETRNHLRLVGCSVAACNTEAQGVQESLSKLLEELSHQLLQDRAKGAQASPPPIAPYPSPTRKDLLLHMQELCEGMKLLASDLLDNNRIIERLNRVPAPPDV

Row | SMILES | percentage inhibition of S6K1 (S6K1) | percentage inhibition of PKCz (PKCz) | percentage inhibition of CDK2-CyclinA (CDK2-CyclinA) | percentage inhibition of PLK1 (PLK1) | percentage inhibition of AuroraB (AuroraB) | percentage inhibition of MARK3 (MARK3) | percentage inhibition of IKKe (IKKe) | percentage inhibition of MEKK1 (MEKK1)
1 | c1cc2[nH]nc3c2c(n1)N(C1CCC1)CCC3 [Example 22, 6-cyclobutyl-6,7,8,9-tetrahydro-2H-1,2,5,6-tetraazabenzo[cd]azulene] | 0 percentage | 0 percentage | 16 percentage | 4 percentage | 23 percentage | 1 percentage | 0 percentage | 0 percentage
2 | c1cc2[nH]nc3c2c(n1)N(C1CCCC1)CCC3 [Example 23, 6-cyclopentyl-6,7,8,9-tetrahydro-2H-1,2,5,6-tetraazabenzo[cd]azulene] | 0 percentage | 0 percentage | 0 percentage | 3 percentage | 1 percentage | 0 percentage | 0 percentage | 0 percentage
3 | c1cc2[nH]nc3c2c(n1)N(C1CCOCC1)CCC3 [Example 29, 6-(tetrahydro-2H-pyran-4-yl)-6,7,8,9-tetrahydro-2H-1,2,5,6-tetraazabenzo[cd]azulene] | 2 percentage | 0 percentage | 30 percentage | 0 percentage | 29 percentage | 13 percentage | 9 percentage | 0 percentage
4 | CN1CCC(N2Cc3ccccc3-c3n[nH]c4ccnc2c34)CC1 [Example 55] | 17 percentage | 0 percentage | 10 percentage | 28 percentage | 38 percentage | 47 percentage | 5 percentage | 5 percentage
5 | CC(C)n1ncc2c1CN(C1CCN(C)CC1)c1nccc3[nH]nc-2c13 [Example 68] | 0 percentage | 1 percentage | 0 percentage | 21 percentage | 19 percentage | 43 percentage | 0 percentage | 0 percentage
